pIC50: −log10 of the molar value.
Assays:
5HT3 receptor = target: T1, 5HT3 receptor (Rattus norvegicus, UniProt P35563); test: Inhibition of the von Bezold-Jarisch chemoreflex evoked by 5-HT in the anesthetized rat (in-vivo 5HT3 antagonist activity); details: von Bezold-Jarisch reflex elicited by 5-HT (30 μg/kg i.v.); for ED50: iv, limits printed on the next line; for % inhibition: dose 100 μg/kg i.v., N = 6, mean
T1 construct: chemoreflex evoked by 5HT in the anesthetized rat; from tissue; host or cells: anesthetized rat, whole animal (endogenous receptor)
T1 sequence (P35563 24-483): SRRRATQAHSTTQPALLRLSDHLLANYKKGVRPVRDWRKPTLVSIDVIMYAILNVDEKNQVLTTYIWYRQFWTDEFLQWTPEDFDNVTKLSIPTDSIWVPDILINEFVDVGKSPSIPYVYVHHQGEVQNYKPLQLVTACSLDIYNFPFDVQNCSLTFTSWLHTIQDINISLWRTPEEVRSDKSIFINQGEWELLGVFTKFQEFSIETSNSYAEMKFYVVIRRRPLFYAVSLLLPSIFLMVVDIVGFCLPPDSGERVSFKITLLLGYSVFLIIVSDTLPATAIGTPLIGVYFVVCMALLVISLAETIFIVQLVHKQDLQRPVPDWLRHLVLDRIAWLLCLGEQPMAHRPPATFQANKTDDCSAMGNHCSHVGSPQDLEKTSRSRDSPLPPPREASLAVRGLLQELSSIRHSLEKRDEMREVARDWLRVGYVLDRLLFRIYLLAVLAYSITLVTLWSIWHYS
Method: Pharmacol. 326, 36-44 (1984).
The following Table I reports in-vivo 5HT3 antagonist activity data obtained in this test for two representative compounds of the invention.
Inhibition of the von Bezold-Jarisch reflex
elicited by 5-HT (30 μg/kg i.v.) by FCE
compounds in the anesthetized rat. Values are
mean ± in S.E.M. from N animals

serotonin 5HT3 receptors = target: T2, serotonin 5HT3 receptors (Rattus norvegicus, UniProt P35563); test: Affinity for serotonin 5HT3 receptors in rat entorhinal cortex using radioligand 3H-BRL 43694; format: binding
T2 construct: assessed for instance in rat entorhinal cortex using a selective radioligand; from tissue; host or cells: rat entorhinal cortex
T2 sequence (P35563 24-483): T1 sequence (P35563 24-483)
Method: The affinity for serotonin 5HT3 receptors was assessed for instance in rat entorhinal cortex using a selective radioligand ^3 H-BRL 43694 as described by Nelson and Thomas (1989).
Nelson D. R. and Thomas D. R., [^3 H]-BRL 43694 (Granisetron), a specific ligand for 5HT3 binding sites in rat brain cortical membranes, Biochem. Pharmac., 38, 1693-1695, 1989.
The following Table II summarized the data obtained in this in-vitro test for two representative compounds of the invention.
5-HT3 binding affinity for rat enthiorinal cortex

Row | SMILES | ED50 (5HT3 receptor) | % inhibition (5HT3 receptor) | pIC50 (serotonin 5HT3 receptors)
1 | Cl.O=C1N(C2CN3CCC2CC3)Cc2cc3ccccc3n21 (stereo not drawn) [FCE 28841, 2-(1-azabicyclo[2.2.2]oct-3-yl)-1,2-dihydro-imidazo[1,5-a]indol-3-one hydrochloride] | 0.0218 mg/kg | 90.71% | 8.15
2 | CN1C2CCC1CC(N1Cc3cc4ccccc4n3C1=O)C2 (stereo not drawn) [FCE 28837, (endo)-2-(8-methyl-8-azabicyclo[3.2.1]oct-3-yl)-1,2-dihydro-imidazo[1,5-a]indol-3-one] | 0.0118 mg/kg | 88.5% | 8.00

Source: patent US5637596A, “Azabicycloalkyl derivatives of imidazo[1,5-a]indol-3-one and process for their preparation” (Pharmacia S.p.A., priority 1994, dated 1997)
